Our source for the IC50 values is patent publication US20240174647A1 (NEURON23, INC., priority 2022, published 2024).

The target of this test is wt human LRRK2, catalytic site (Homo sapiens (Human), UniProt Q5S007). In words: TR-FRET LanthaScreen Tb Kinase Activity Assay (LRRK2 kinase inhibition). The settings on record: 2 nM wt human LRRK2, 400 nM fluorescein-ERM (LRRKtide) peptide, 38 μM ATP, 120 minutes at room temperature. It is filed as biochemical. In short, it runs like this:
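LanthaScreen TR-FRET with 2 nM wt human LRRK2 catalytic site, 400 nM fluorescein-ERM (LRRKtide) peptide and 38 µM ATP in Kinase Buffer A; 120 min at room temperature. Phosphorylation detected with EDTA and Tb-anti-pLRRKtide after 60 min; IC50 from emission ratios.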
In general terms: TR-FRET usually uses a lanthanide donor and a delayed reading to cut background.

SMILES strings stand for the structures. Some results are limits rather than exact numbers.

wt human LRRK2, catalytic site, sequence (Q5S007 1879-2138): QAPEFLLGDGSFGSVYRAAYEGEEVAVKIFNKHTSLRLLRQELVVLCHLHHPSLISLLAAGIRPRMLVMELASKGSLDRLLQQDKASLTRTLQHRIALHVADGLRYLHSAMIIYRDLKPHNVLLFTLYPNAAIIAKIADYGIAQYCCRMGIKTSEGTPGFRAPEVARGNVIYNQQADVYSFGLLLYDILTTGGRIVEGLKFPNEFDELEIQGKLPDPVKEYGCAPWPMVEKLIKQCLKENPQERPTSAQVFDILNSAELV

Consider `CC(C)(C#N)n1ncc2c(Nc3ncc(C(F)(F)F)c(NC4CC4)n3)cccc21` [Example 103, 2-(4-((4-(cyclopropylamino)-5-(trifluoromethyl)pyrimidin-2-yl)amino)-1H-indazol-1-yl)-2-methylpropanenitrile], for which the 50% inhibitory concentration (IC50) (in general, the midpoint of a concentration-inhibition curve) is under 50 nM. To `CNc1nc(Nc2cccc3c2cnn3C(=O)N2CCOCC2)ncc1C(F)(F)F` [Example 32, (4-((4-(methylamino)-5-(trifluoromethyl)pyrimidin-2-yl)amino)-1H-indazol-1-yl)(morpholino)methanone] belongs under 50 nM. The compound `CC1(Nc2nc(Nc3cccc4c3cnn4CCS(C)(=O)=O)ncc2C(F)(F)F)CC1` [Example 191, N^4-(1-methylcyclopropyl)-N^2-(1-(2-(methylsulfonyl)ethyl)-1H-indazol-4-yl)-5-(trifluoromethyl)pyrimidine-2,4-diamine] registered an IC50 of under 50 nM. To `CNc1nc(Nc2ccc(C3=CCN(C)CC3)c3c2cnn3CC(N)=O)ncc1C(F)(F)F` [Example 100, 2-(7-(1-methyl-1,2,3,6-tetrahydropyridin-4-yl)-4-((4-(methylamino)-5-(trifluoromethyl)pyrimidin-2-yl)amino)-1H-indazol-1-yl)acetamide] belongs under 50 nM; to `CNc1nc(Nc2ccc3cnn(C)c3c2)ncc1C(F)(F)F` [Example 12, N4-methyl-N2-(1-methyl-1H-indazol-6-yl)-5-(trifluoromethyl)pyrimidine-2,4-diamine], under 50 nM. To `CNc1nc(Nc2ccc3c(C(=O)N4CCOCC4)n[nH]c3c2)ncc1C(F)(F)F` [Example 9, (6-((4-(methylamino)-5-(trifluoromethyl)pyrimidin-2-yl)amino)-1H-indazol-3-yl)(morpholino)methanone] belongs under 50 nM; to `CNc1nc(Nc2ccc3c(C#N)nn(C)c3c2)ncc1C(F)(F)F` [Example 11, 1-methyl-6-((4-(methylamino)-5-(trifluoromethyl)pyrimidin-2-yl)amino)-1H-indazole-3-carbonitrile], under 50 nM; to `CNc1nc(Nc2c(C)nn3ccccc23)ncc1C(F)(F)F` [Example 62, N4-methyl-N2-(2-methylpyrazolo[1,5-a]pyridin-3-yl)-5-(trifluoromethyl) pyrimidine-2,4-diamine], 50 to 200 nM.

Turning to `N#CCn1ncc2c(Nc3ncc(C(F)(F)F)c(NC4CC4)n3)cccc21` [Example 93], the IC50 was under 50 nM.

The compound `CNc1nc(Nc2cc(/C=C/C(=O)N3CCOCC3)cc3c2cnn3C)ncc1C(F)(F)F` [Example 46, (E)-3-(1-methyl-4-((4-(methylamino)-5-(trifluoromethyl)pyrimidin-2-yl)amino)-1H-indazol-6-yl)-1-morpholinoprop-2-en-1-one] registered an IC50 of under 50 nM. To `CNc1nc(Nc2ccc3cn(C)nc3c2OC)ncc1C(F)(F)F` [Example 20, N2-(7-methoxy-2-methyl-2H-indazol-6-yl)-N4-methyl-5-(trifluoromethyl)pyrimidine-2,4-diamine] belongs under 50 nM. To `COCCNc1nc(Nc2cccc3c2cnn3C(C)(C)C#N)ncc1C(F)(F)F` [Example 155, 2-[4-[[4-(2-methoxyethylamino)-5-(trifluoromethyl)pyrimidin-2-yl]amino]indazol-1-yl]-2-methyl-propanenitrile] belongs under 50 nM; to `CCNc1nc(Nc2cccc3c2cnn3C(C)(C)C#N)ncc1C(F)(F)F` [Example 154, 2-(4-((4-(ethylamino)-5-(trifluoromethyl)pyrimidin-2-yl)amino)-1H-indazol-1-yl)-2-methylpropanenitrile], under 50 nM.

For the compound `CCOc1nc(Nc2cccc3c2cnn3S(C)(=O)=O)nc2[nH]cc(Cl)c12` [Example 158, 5-chloro-4-ethoxy-N-(1-methylsulfonylindazol-4-yl)-7H-pyrrolo [2,3-d]pyrimidin-2-amine], the concentration for half-maximal inhibition (IC50) is under 50 nM. To `CCOc1nc(Nc2cccc3c2cnn3CC(F)F)nc2[nH]cc(Cl)c12` [Example 165, 5-chloro-N-[1-(2,2-difluoroethyl)indazol-4-yl]-4-ethoxy-7H-pyrrolo[2,3-d]pyrimidin-2-amine] belongs under 50 nM. To `CNc1nc(Nc2cn(C)c3ncncc23)ncc1C(F)(F)F` [Example 125, 4-methyl-N2(7-methylpyrrolo[2,3-d]pyrimidin-5-yl)-5-(trifluoromethyl) pyrimidine-2,4-diamine] belongs under 50 nM; to `Cn1ncc2c(Nc3ncc(C(F)(F)F)c(NC4CC4)n3)cccc21` [Example 68, N4-cyclopropyl-N2-(1-methyl-1H-indazol-4-yl)-5-(trifluoromethyl)pyrimidine-2,4-diamine], under 50 nM.

Compound `CNc1nc(Nc2cccc3c2cnn3CC(F)F)ncc1C(F)(F)F` [Example 94, N2-(1-(2,2-difluoroethyl)-1H-indazol-4-yl)-N4-methyl-5-(trifluoromethyl)pyrimidine-2,4-diamine] gave an IC50 of under 50 nM.

Turning to `CNc1nc(Nc2cn(CC#N)c3cnccc23)ncc1C(F)(F)F` [Example 131, 2-[3-[[4-(methylamino)-5-(trifluoromethyl)pyrimidin-2-yl]amino]pyrrolo[2,3-c]pyridin-1-yl]acetonitrile], the IC50 was under 50 nM.

Take `CNc1nc(Nc2ccc3c(C#N)n[nH]c3c2)ncc1C(F)(F)F` [Example 8, 6-((4-(methylamino)-5-(trifluoromethyl)pyrimidin-2-yl)amino)-1H-indazole-3-carbonitrile]: the IC50 was at least 200 nM. Under `N#CCn1ncc2c(Nc3ncc(C(F)(F)F)c(NCC4CC4)n3)cccc21` [Example 104, 2-(4-((4-((cyclopropylmethyl)amino)-5-(trifluoromethyl)pyrimidin-2-yl)amino)-1H-indazol-1-yl)acetonitrile] stands under 50 nM; under `CS(=O)(=O)n1ncc2c(Nc3ncc(C(F)(F)F)c(N[C@H]4CCOC4)n3)cccc21` [Example 149, (S)—N^2-(1-(Methylsulfonyl)-1H-indazol-4-yl)-N^4-(tetrahydrofuran-3-yl)-5-(trifluoromethyl)pyrimidine-2,4-diamine], under 50 nM; under `CNc1nc(Nc2cccc3nn(C)cc23)ncc1C(F)(F)F` [Example 34, N4-methyl-N2-(2-methyl-2H-indazol-4-yl)-5-(trifluoromethyl)pyrimidine-2,4-diamine], under 50 nM. Under `CC(C)S(=O)(=O)CCn1ncc2c(Nc3ncc(C(F)(F)F)c(NC4CC4)n3)cccc21` [Example 194, N4-cyclopropyl-N^2-(1-(2-(isopropylsulfonyl)ethyl)-1H-indazol-4-yl)-5-(trifluoromethyl)pyrimidine-2,4-diamine] stands under 50 nM. To `CNc1nc(Nc2ccc(C3CCN(C)CC3)c3c2cnn3C)ncc1C(F)(F)F` [Example 82, N4-methyl-N2-(1-methyl-7-(1-methylpiperidin-4-yl)-1H-indazol-4-yl)-5-(trifluoromethyl)pyrimidine-2,4-diamine] belongs under 50 nM; to `CNc1nc(Nc2cc(CCC(=O)N3CCOCC3)cc3[nH]ncc23)ncc1C(F)(F)F` [Example 53, 3-(4-((4-(methylamino)-5-(trifluoromethyl)pyrimidin-2-yl)amino)-1H-indazol-6-yl)-1-morpholinopropan-1-one], 50 to 200 nM.
